The values below come from patent US10179123B2, “2-aryl- and 2-arylalkyl-benzimidazoles as mIDH1 inhibitors” (BAYER PHARMA AKTIENGESELLSCHAFT, priority 2015, dated 2019).

pIC50: −log10 of the molar value.

Chain of IDH1 R132H enzyme (O75874 whole entry R132H): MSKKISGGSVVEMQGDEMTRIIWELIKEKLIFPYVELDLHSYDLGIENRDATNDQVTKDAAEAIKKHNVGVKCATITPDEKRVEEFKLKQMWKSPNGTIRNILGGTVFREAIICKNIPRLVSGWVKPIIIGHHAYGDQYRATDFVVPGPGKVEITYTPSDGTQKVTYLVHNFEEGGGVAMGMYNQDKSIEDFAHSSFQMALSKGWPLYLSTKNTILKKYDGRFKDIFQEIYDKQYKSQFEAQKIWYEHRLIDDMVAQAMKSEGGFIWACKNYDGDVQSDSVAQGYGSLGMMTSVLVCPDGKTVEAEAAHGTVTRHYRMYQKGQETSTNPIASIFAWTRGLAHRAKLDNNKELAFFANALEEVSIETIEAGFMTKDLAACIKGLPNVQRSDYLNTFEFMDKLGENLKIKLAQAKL

This assay deals with IDH1 R132H enzyme (Homo sapiens (Human), UniProt O75874, R132H). As to the kind of experiment: Mutant IDH1 R132H biochemical assay. Particulars: NADPH consumption, luminescent readout; 1.5 nM enzyme, 1 μM NADPH, 250 μM α-KG, 30 minutes, 32° C. Here is the method:
NADPH consumption was measured by luminescent readout. […] The final DMSO concentration was 2.4%. […] Luminescence was measured on a luminescent reader (10 seconds measuring time, 1 second integration period, 30% sensitivity). The decrease in luminescence is proportional to mIDH1 activity. IC50 values are determined by interpolation from plots of relative luminescence versus inhibitor concentration.
As to `COC(=O)c1ccc2c(c1)nc(-c1ccc(OC(F)(F)F)cc1)n2[C@H]1C[C@@H](C)CC(C)(C)C1` (racemic) [Example 2-1, (±) methyl 2-[4-(trifluoromethoxy)phenyl]-1-[(cis)-3,3,5-trimethylcyclohexyl]-1H-benzimidazole-5-carboxylate], the negative logarithm of the IC50 (pIC50) (as a rule, −log10 of the IC50, conventionally taken in molar units) was 5.00.

With `COC(=O)c1ccc2c(c1)nc(Cc1ccc(OC(F)(F)F)cc1)n2[C@H]1C[C@@H](C)CC(C)(C)C1` (racemic) [Example 2-3, (±) methyl 2-[4-(trifluoromethoxy)benzyl]-1-[(cis)-3,3,5-trimethylcyclohexyl]-1H-benzimidazole-5-carboxylate], the pIC50 was 6.17. Against the preceding compound, the pIC50 is 1.17 log units higher.

`COC(=O)c1ccc2c(c1)nc(Cc1ccc(OC(C)C)cc1)n2[C@H]1C[C@@H](C)CC(C)(C)C1` (racemic) [Example 2-6, (±) methyl 2-[4-(propan-2-yloxy)benzyl]-1-[(cis)-3,3,5-trimethylcyclohexyl]-1H-benzimidazole-5-carboxylate] showed a pIC50 of 5.82.

Compound `COC(=O)c1ccc2c(c1)nc(Cc1ccc(C(F)(F)F)cc1)n2[C@H]1C[C@@H](C)CC(C)(C)C1` (racemic) [Example 2-8, (±) methyl 2-[4-(trifluoromethyl)benzyl]-1-[(cis)-3,3,5-trimethylcyclohexyl]-1H-benzimidazole-5-carboxylate] had a pIC50 of 5.82.

With `COC(=O)c1ccc2c(c1)nc(Cc1ccc(F)cc1)n2[C@H]1C[C@@H](C)CC(C)(C)C1` (racemic) [Example 2-9, (±) methyl 2-(4-fluorobenzyl)-1-[(cis)-3,3,5-trimethylcyclohexyl]-1H-benzimidazole-5-carboxylate], the pIC50 was 5.38.

In turn, `COC(=O)c1ccc2c(c1)nc(Cc1ccc(C)cc1)n2[C@H]1C[C@@H](C)CC(C)(C)C1` (racemic) [Example 2-10, (±) methyl 2-(4-methylbenzyl)-1-[(cis)-3,3,5-trimethylcyclohexyl]-1H-benzimidazole-5-carboxylate] showed a negative logarithm of the IC50 (pIC50) of 5.82.

In the case of `COC(=O)c1ccc2c(c1)nc(Cc1ccc(C(C)(C)C)cc1)n2[C@H]1C[C@@H](C)CC(C)(C)C1` (racemic) [Example 2-11, (±) methyl 2-(4-tert-butylbenzyl)-1-[(cis)-3,3,5-trimethylcyclohexyl]-1H-benzimidazole-5-carboxylate], the negative-log IC50 (pIC50) is 5.85.

The compound `COC(=O)c1ccc2c(c1)nc(Cc1ccccc1OC(F)(F)F)n2[C@@H]1C[C@H](C)CC(C)(C)C1` (racemic) [Example 2-13, (± methyl 2-[2-(trifluoromethoxy)benzyl]-1-[(cis)-3,3,5-trimethylcyclohexyl]-1H-benzimidazole-5-carboxylate] showed a negative-log IC50 (pIC50) of 5.00.

As for `COC(=O)c1ccc2c(c1)nc(Cc1cccc(OC(F)(F)F)c1)n2[C@H]1C[C@@H](C)CC(C)(C)C1` (racemic) [Example 2-14, (±) methyl 2-[3-(trifluoromethoxy)benzyl]-1-[(cis)-3,3,5-trimethylcyclohexyl]-1H-benzimidazole-5-carboxylate], the pIC50 is 5.00.

Compound `COC(=O)c1cc2nc(Cc3ccc(OC(F)(F)F)cc3)n([C@H]3C[C@@H](C)CC(C)(C)C3)c2cc1OC(C)C` (racemic) [Example 2-20, (±) methyl 6-(propan-2-yloxy)-2[4-(trifluoromethoxy)benzyl]-1-[(cis)-3,3,5-trimethylcyclohexyl]-1H-benzimidazole-5-carboxylate] had a negative logarithm of the IC50 (pIC50) of 5.55. This pIC50 lies 0.55 log units higher than the previous one.

On to `CC(C)Oc1ccc(Cc2nc3cc(C#N)ccc3n2[C@H]2C[C@@H](C)CC(C)(C)C2)cc1` (racemic) [Example 2-24, (±) 2-[4-(propan-2-yloxy)benzyl]-1-[(cis)-3,3,5-trimethylcyclohexyl]-1H-benzimidazole-5-carbonitrile], for which the pIC50 is 5.82.

The compound `CC(C)c1ccc(Cc2nc3cc(C#N)ccc3n2[C@H]2C[C@@H](C)CC(C)(C)C2)cc1` (racemic) [Example 2-25, (±) 2-[4-(propan-2-yl)benzyl]-1-[(cis)-3,3,5-trimethylcyclohexyl]-1H-benzimidazole-5-carbonitrile] had a pIC50 of 6.46.

Turning to `C[C@@H]1C[C@H](n2c(Cc3ccc(C(F)(F)F)cc3)nc3cc(C#N)ccc32)CC(C)(C)C1` (racemic) [Example 2-26, (±) 2-[4-(trifluoromethyl)benzyl]-1-[(cis)-3,3,5-trimethylcyclohexyl]-1H-benzimidazole-5-carbonitrile], the pIC50 is 6.15.

For `COC(=O)c1ccc2c(c1)nc(C(C)(C)c1ccc(OC(F)(F)F)cc1)n2[C@H]1C[C@@H](C)CC(C)(C)C1` (racemic) [Reference compound 2-5, (±) methyl 2-{2-[4-(trifluoromethoxy)phenyl]propan-2-yl}-1-[(cis)-3,3,5-trimethylcyclohexyl]-1H-benzimidazole-5-carboxylate, reference compound], the negative logarithm of the IC50 (pIC50) was < 5.00.

Regarding `COC(=O)c1ccc2c(c1)nc(C(C)c1ccc(OC(F)(F)F)cc1)n2[C@H]1C[C@@H](C)CC(C)(C)C1` (relative stereo) [Reference compound 2-4, methyl 2-{1-[4-(trifluoromethoxy)phenyl]ethyl}-1-[(cis)-3,3,5-trimethylcyclohexyl]-1H-benzimidazole-5-carboxylate, reference compound], the pIC50 is < 5.00.

`COC(=O)c1ccc2c(c1)nc(-c1ccc(OC(F)(F)F)cc1)n2[C@H]1C[C@@H](C)CC(C)(C)C1` (single isomer, unassigned) [Example 2-1-1, methyl 2-[4-(trifluoromethoxy)phenyl]-1-[(cis)-3,3,5-trimethylcyclohexyl]-1H-benzimidazole-5-carboxylate] had a pIC50 of 6.00.

`COC(=O)c1ccc2c(c1)nc(-c1ccc(OC(F)(F)F)cc1)n2[C@H]1C[C@@H](C)CC(C)(C)C1` (single isomer, unassigned) [Example 2-1-2, methyl 2-[4-(trifluoromethoxy)phenyl]-1-[(cis)-3,3,5-trimethylcyclohexyl]-1H-benzimidazole-5-carboxylate]: the pIC50 was 5.24.

For `COC(=O)c1ccc2c(c1)nc(Cc1ccc(OC(F)(F)F)cc1)n2[C@H]1C[C@@H](C)CC(C)(C)C1` (single isomer, unassigned) [Example 2-3-1, methyl 2-[4-(trifluoromethoxy)benzyl]-1-[(cis)-3,3,5-trimethylcyclohexyl]-1H-benzimidazole-5-carboxylate], the pIC50 is 5.77.

`COC(=O)c1ccc2c(c1)nc(Cc1ccc(OC(F)(F)F)cc1)n2[C@H]1C[C@@H](C)CC(C)(C)C1` (single isomer, unassigned) [Example 2-3-2, methyl 2-[4-(trifluoromethoxy)benzyl]-1-[(cis)-3,3,5-trimethylcyclohexyl]-1H-benzimidazole-5-carboxylate] had a pIC50 of 6.21.

`COC(=O)c1cc2nc(Cc3ccc(OC(F)(F)F)cc3)n([C@H]3C[C@@H](C)CC(C)(C)C3)c2cc1C` (single isomer, unassigned) [Example 2-18-2, methyl 6-methyl-2[4-(trifluoromethoxy)benzyl]-1-[(cis)-3,3,5-trimethylcyclohexyl]-1H-benzimidazole-5-carboxylate] showed a pIC50 of 5.92.
